Reference: US10226045B2, “Azoline compounds” (priority 2014, dated 2019)

What was measured:
Format in all cases: in vivo
[1] = system: Brown Marmorated Stink Bug (Halyomorpha halys); test: Brown marmorated stink bug, sprayed peanuts and soybean seeds in cups; details: 120 h, 100 ppm, adults on peanuts and soybean seeds, after 5 days, in comparison with untreated controls, read-out: mortality
Protocol: B.13 Brown Marmorated Stink Bug (Halyomorpha halys)
(§1) The active compound was dissolved at the desired concentration in a mixture of 1:1 (vol:vol) distilled water: acetone. Surfactant (Kinetic HV) was added at a rate of 0.01% (vol/vol). The test solution was prepared at the day of use.
Row peanuts and soybean seeds were placed into microwavable plastic cups and inoculated with five adult stage H. halys. Using a hand atomizer, approximately 1 ml solution is sprayed into each cup, insects and food present. A water source was provided (cotton wick with water). Each treatment is replicated 4-fold. Assay arenas are kept at about 25° C. Percent mortality was recorded after 5 days.

[2] = system: Mediterranean Fruitfly (Ceratitis capitata); test: Mediterranean fruitfly, insect diet microtiter plate test; details: 120 h, 2500 ppm, eggs on sprayed insect diet, egg and larval mortality after 5 days, in comparison with untreated controls, read-out: mortality
Protocol: B.6 Mediterranean Fruitfly (Ceratitis capitata)
For evaluating control of Mediterranean fruitfly (CeratitiS capitata) the test unit consisted of microtiter plates containing an insect diet and 50-80 C. capitata eggs. The compounds were formulated using a solution containing 75% v/v water and 25% v/v DMSO. Different concentrations of formulated compounds were sprayed onto the insect diet at 5 μl, using a custom built micro atomizer, at two replications.
After application, microtiter plates were incubated at about 28±1° C. and about 80±5% relative humidity for 5 days. Egg and larval mortality was then visually assessed.

[3] = system: Orchid Thrips (dichromothrips corbetti); test: Orchid thrips, floral-immersion technique; details: 300 ppm; adult thrips on dipped orchid petals; 72 hours after treatment; in comparison with untreated controls; read-out: mortality
Protocol: B.7 Orchid Thrips (dichromothrips corbetti)
Dichromothrips corbetti adults used for bioassay were obtained from a colony maintained continuously under laboratory conditions. For testing purposes, the test compound is diluted in a 1:1 mixture of acetone:water (vol:vol), plus Kinetic HV at a rate of 0.01% v/v.
Thrips potency of each compound was evaluated by using a floral-immersion technique. All petals of individual, intact orchid flowers were dipped into treatment solution and allowed to dry in Petri dishes. Treated petals were placed into individual re-sealable plastic along with about 20 adult thrips. All test arenas were held under continuous light and a temperature of about 28° C. for duration of the assay. After 3 days, the numbers of live thrips were counted on each petal. The percent mortality was recorded 72 hours after treatment.

[4] = system: Neotropical Brown Stink Bug (Euschistus heros); test: Neotropical brown stink bug, sprayed soybean pods in cups; details: 120 h, 100 ppm, adults on soybean pods, after 5 days, in comparison with untreated controls, read-out: mortality
Protocol: B.12 Neotropical Brown Stink Bug (Euschistus heros)
as §1
Soybean pods were placed in microwavable plastic cups and inoculated with ten adult stage E. heros. Using a hand atomizer, approximately 1 ml solution is sprayed into each cup, insects and food present. A water source was provided (cotton wick with water). Each treatment was replicated 2-fold. Assay arenas were kept at about 25° C. Percent mortality was recorded after 5 days.

[5] = system: Green Soldier Stink Bug (Nezara viridula); test: Green soldier stink bug, sprayed soybean pods in Petri dishes; details: 120 h, 300 ppm, late 3rd instar on soybean pods, after 5 days, in comparison with untreated controls, read-out: mortality
Protocol: B.11 Green Soldier Stink Bug (Nezara viridula)
The active compound was dissolved at the desired concentration in a mixture of 1:1 (vol:vol) distilled water:acetone. Surfactant (Kinetic HV) was added at a rate of 0.01% (vol/vol). The test solution was prepared at the day of use.
Soybean pods were placed in glass Petri dishes lined with moist filter paper and inoculated with ten late 3rd instar N. viridula. Using a hand atomizer, approximately 2 ml solution is sprayed into each Petri dish. Assay arenas were kept at about 25° C. Percent mortality was recorded after 5 days.

O=C(NC1CS(=O)(=O)C1)c1ccc(C2=NCC(c3cc(Cl)c(F)c(Cl)c3)(C(F)(F)F)C2)c2c1CCC2 (centres unmarked) [Compound 2-3, 7-[3-(3,5-Dichloro-4-fluoro-phenyl)-3-(trifluoromethyl)-2,4-dihydropyrrol-5-yl]-N-(1,1-dioxothietan-3-yl)indane-4-carboxamide]
≥ 75%: mortality at 100 ppm [1] | mortality at 2500 ppm [2] | mortality at 300 ppm [3] | mortality at 100 ppm [4] | mortality at 300 ppm [5]
